The values that follow come from paper PMC11494505, “Asymmetric Monoreduction of α,β-Dicarbonyls to α-Hydroxy Carbonyls by Ene Reductases” (ACS Catalysis, 2024).

Data set [1] has as its target T1, GluER (Gluconobacter oxydans, UniProt Q5FTL6).
T1 construct: gene GOX0502; wild type, N-terminal His-tag (pET-28a(+)), E. coli BL21 Gold(DE3), IMAC, FMN-loaded
Nature of the data set: bioconversion to 2-hydroxyhexan-3-one, chiral GC. It is filed as biochemical. To be noted: 10 mM substrate, 5 μM enzyme, 1.1 eq. NADPH, 2% DMSO, pH 7.0, 30 °C, 6 h.

The target in data set [2] is T2, EPB1 (Candida albicans, UniProt A0A1D8PPK1).
T2 construct: gene EBP1; wild type, N-terminal His-tag (pET-28a(+)), E. coli BL21 Gold(DE3); spelled EBP1 in Methods
T2 sequence (A0A1D8PPK1 whole entry): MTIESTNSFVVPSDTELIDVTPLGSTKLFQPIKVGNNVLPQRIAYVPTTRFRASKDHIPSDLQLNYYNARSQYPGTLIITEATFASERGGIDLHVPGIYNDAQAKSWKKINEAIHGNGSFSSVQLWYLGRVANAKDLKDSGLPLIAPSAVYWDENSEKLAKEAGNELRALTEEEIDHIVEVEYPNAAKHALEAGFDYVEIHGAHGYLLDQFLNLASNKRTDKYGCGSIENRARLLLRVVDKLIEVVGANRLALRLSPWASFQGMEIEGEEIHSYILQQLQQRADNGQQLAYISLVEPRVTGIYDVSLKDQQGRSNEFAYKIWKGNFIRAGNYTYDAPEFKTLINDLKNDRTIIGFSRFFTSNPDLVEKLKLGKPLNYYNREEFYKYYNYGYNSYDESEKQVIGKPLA
Briefly: bioconversion to 7b, HPLC. The conditions noted are these: 10 mM substrate, 5 μM enzyme, 11 mM NADPH, 2% DMSO, pH 7.0, 30 °C, 6 h. The data set is classed as biochemical.

Data set [3] concerns the target T3, OYE2 (Saccharomyces cerevisiae, UniProt Q03558).
T3 construct: wild type, N-terminal His-tag (pET-28a(+)), E. coli BL21 Gold(DE3), IMAC, FMN-loaded
Nature of the data set: bioconversion to 7b, HPLC. The data set is classed as biochemical. To be noted: 10 mM substrate, 5 μM enzyme, 11 mM NADPH, 2% DMSO, pH 7.0, 30 °C, 6 h.

Data set [4] deals with T1, GluER. Briefly: bioconversion to 7b and 7c, HPLC / GC. It is filed as biochemical. To be noted: 10 mM substrate, 5 μM enzyme, 1.1 eq. NADPH, 2% DMSO, pH 7.0, 30 °C, 6 h.
Data set [5] deals with T4, XenA (Pseudomonas putida, UniProt Q9R9V9).
T4 construct: recombinant in-house enzyme; details in supplement
T4 sequence (Q9R9V9 entry or part of it): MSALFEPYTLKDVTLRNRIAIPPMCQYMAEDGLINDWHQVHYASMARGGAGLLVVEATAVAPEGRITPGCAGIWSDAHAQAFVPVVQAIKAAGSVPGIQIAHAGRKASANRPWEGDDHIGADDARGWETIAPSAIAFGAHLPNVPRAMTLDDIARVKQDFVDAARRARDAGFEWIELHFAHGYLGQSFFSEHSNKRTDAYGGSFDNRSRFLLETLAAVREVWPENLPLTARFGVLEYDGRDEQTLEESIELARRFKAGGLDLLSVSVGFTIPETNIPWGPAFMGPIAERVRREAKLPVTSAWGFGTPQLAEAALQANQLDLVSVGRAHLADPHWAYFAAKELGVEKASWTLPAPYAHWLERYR
Briefly: bioconversion to 7b, HPLC. It is filed as biochemical. The conditions noted are these: 10 mM substrate, 5 μM enzyme, 11 mM NADPH, 2% DMSO, pH 7.0, 30 °C, 6 h.

The target of data set [6] is T5, TOYE (Thermoanaerobacter pseudethanolicus, UniProt B0KAH1).
T5 construct: gene Teth39_0012; recombinant in-house enzyme; details in supplement
T5 sequence (B0KAH1 entry or part of it): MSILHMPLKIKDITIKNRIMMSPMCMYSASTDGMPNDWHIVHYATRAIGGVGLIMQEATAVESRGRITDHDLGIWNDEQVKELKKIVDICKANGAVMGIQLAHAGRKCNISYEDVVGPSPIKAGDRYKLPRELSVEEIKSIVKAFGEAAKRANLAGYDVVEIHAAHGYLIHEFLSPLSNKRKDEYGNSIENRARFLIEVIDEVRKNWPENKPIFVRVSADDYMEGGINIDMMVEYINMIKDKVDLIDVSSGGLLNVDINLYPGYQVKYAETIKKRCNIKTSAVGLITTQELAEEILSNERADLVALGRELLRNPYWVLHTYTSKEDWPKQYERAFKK
Nature of the data set: bioconversion to 7b, HPLC. The data set is classed as biochemical. To be noted: 10 mM substrate, 5 μM enzyme, 11 mM NADPH, 2% DMSO, pH 7.0, 30 °C, 6 h.

In data set [7] the target is T6, PETNR (Enterobacter cloacae, UniProt P71278).
T6 construct: gene onr; recombinant in-house enzyme; details in supplement
T6 sequence (P71278 entry or part of it): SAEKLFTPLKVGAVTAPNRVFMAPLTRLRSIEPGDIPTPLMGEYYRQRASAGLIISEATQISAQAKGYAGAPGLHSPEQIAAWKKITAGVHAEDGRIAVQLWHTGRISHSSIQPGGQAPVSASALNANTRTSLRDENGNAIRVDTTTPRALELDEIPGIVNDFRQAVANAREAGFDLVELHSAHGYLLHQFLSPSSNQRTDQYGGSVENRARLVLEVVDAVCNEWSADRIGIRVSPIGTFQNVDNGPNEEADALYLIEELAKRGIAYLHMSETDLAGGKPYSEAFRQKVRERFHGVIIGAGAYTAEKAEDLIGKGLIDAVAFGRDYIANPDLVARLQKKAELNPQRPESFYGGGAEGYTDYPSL
Nature of the data set: bioconversion to 7b, HPLC. The data set is classed as biochemical. To be noted: 10 mM substrate, 5 μM enzyme, 11 mM NADPH, 2% DMSO, pH 7.0, 30 °C, 6 h.

Data set [8] concerns the target T7, YqjM (Bacillus subtilis, UniProt P54550).
T7 construct: gene namA; recombinant, purified; details in supplement
Briefly: bioconversion to 7b, HPLC. It is filed as biochemical. To be noted: 10 mM substrate, 5 μM enzyme, 11 mM NADPH, 2% DMSO, pH 7.0, 30 °C, 6 h.

Data set [9] concerns the target T8, TsOYE (Thermus scotoductus, UniProt B0JDW3).
T8 construct: gene chrR; wild type, pET-28a(+), E. coli BL21 Gold(DE3), N-terminal His-tag, heat purified (70 °C)
Briefly: bioconversion to 7b, HPLC. It is filed as biochemical. To be noted: 10 mM substrate, 5 μM enzyme, 11 mM NADPH, 2% DMSO, pH 7.0, 30 °C, 6 h.

Data set [10] concerns the target T3, OYE2. Nature of the data set: bioconversion, GC. The data set is classed as biochemical. To be noted: 10 mM substrate, 5 μM enzyme, 11 mM NADPH, 2% DMSO, pH 7.0, 30 °C, 6 h; product detected as 8c by GC.
Data set [11] deals with T9, CC(=O)C(=O)c1ccccc1.
T9 construct: wild type, N-terminal His-tag (pET-28a(+)), E. coli BL21 Gold(DE3), IMAC, FMN-loaded
Briefly: steady-state Michaelis-Menten kinetics. The data set is classed as biochemical, Saccharomyces cerevisiae. To be noted: NADPH as cofactor.

T1 sequence (Q5FTL6 entry or part of it): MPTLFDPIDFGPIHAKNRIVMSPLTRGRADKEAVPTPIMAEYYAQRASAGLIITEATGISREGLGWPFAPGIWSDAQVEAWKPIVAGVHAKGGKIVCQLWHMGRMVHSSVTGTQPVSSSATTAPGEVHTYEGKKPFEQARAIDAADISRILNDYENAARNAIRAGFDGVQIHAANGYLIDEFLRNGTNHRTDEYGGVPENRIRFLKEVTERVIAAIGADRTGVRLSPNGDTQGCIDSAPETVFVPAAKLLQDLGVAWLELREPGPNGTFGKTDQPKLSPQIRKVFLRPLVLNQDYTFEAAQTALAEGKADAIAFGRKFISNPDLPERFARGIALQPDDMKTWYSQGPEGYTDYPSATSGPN
T3 sequence (Q03558 whole entry): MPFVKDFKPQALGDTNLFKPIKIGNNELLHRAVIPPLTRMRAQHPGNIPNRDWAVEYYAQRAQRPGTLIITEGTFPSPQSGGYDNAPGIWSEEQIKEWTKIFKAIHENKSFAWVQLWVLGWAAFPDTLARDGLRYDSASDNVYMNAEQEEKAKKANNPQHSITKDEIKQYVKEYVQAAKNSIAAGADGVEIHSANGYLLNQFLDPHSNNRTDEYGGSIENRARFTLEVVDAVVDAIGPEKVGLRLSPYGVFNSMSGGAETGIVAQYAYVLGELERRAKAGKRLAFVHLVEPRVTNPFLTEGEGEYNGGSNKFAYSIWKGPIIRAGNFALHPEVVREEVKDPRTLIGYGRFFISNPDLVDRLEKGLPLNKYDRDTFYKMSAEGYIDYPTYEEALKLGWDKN
T7 sequence (P54550 2-338): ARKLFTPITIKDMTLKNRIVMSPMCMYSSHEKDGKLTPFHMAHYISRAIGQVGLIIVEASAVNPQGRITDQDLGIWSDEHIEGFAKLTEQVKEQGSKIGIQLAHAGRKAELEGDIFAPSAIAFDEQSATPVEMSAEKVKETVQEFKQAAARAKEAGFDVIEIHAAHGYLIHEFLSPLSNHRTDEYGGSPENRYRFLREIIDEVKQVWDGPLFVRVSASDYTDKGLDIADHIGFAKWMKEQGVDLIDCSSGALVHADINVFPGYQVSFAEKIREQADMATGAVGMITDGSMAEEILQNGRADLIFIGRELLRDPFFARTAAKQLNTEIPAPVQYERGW

Regarding `CCCC(=O)C(C)=O` [2a, 2,3-hexanedione], the “% conversion” value in [1] came to 19%.

For `CC(=O)C(=O)c1ccccc1` [7a, 1-phenyl-1,2-propanedione], the “bioconversion to 7b, HPLC” value in data set [2] is recorded as “class II (OYE3, OYE2, EPB1)”; in data set [3], “Nine of the enzymes produced the single product 7b”; in data set [5], “class III (TsOYE, XenA, TOYE, YqjM)”; in [6], “class III (TsOYE, XenA, TOYE, YqjM)”; in data set [7], “Nine of the enzymes produced the single product 7b; class I (PETNR, NCR)”; in [8], “class III (TsOYE, XenA, TOYE, YqjM)”. Also, in [9], the “bioconversion to 7b, HPLC” value is listed as “class III (TsOYE, XenA, TOYE, YqjM)”. In addition, the “bioconversion to 7b and 7c, HPLC / GC” value in data set [4] is “GluER was the most versatile ERED, able to reduce 1a–5a, 7a, and 8a”.

As for `O=CC(=O)c1ccccc1` [8a, phenylglyoxal], in data set [10], the “bioconversion, GC” value is “could confirm excellent conversions with 8a”.

As a reminder, the Km is the concentration of substrate that gives half-maximal velocity. By kcat is commonly meant the maximal rate divided by the concentration of active sites. Take OYE3 (Saccharomyces cerevisiae S288C): in [11], the Km turned out to be 2460 ± 250 µM and the kcat is 0.71 ± 0.03 s⁻¹.
